Measured values reported in patent publication US10919877B2, “Multifunctional inhibitors of MEK/PI3K and mTOR/MEK/PI3K biological pathways and therapeutic methods using the same” (THE REGENTS OF THE UNIVERSITY OF MICHIGAN, priority 2016, dated 2021).
“Also recorded” adds a separate entry of the source. Like-named read-outs stand apart in the source and are kept apart here. Blank lines part the entries; values can stand above or below the compound they belong to.

Key:
PI3Kα = biological target: T1, PI3Kα (Homo sapiens, UniProt P42336); assay: PI3K subtype enzyme inhibition; format: biochemical
T1 construct: purchased Life Technologies (assay run by the vendor)
T1 sequence (P42336 whole entry): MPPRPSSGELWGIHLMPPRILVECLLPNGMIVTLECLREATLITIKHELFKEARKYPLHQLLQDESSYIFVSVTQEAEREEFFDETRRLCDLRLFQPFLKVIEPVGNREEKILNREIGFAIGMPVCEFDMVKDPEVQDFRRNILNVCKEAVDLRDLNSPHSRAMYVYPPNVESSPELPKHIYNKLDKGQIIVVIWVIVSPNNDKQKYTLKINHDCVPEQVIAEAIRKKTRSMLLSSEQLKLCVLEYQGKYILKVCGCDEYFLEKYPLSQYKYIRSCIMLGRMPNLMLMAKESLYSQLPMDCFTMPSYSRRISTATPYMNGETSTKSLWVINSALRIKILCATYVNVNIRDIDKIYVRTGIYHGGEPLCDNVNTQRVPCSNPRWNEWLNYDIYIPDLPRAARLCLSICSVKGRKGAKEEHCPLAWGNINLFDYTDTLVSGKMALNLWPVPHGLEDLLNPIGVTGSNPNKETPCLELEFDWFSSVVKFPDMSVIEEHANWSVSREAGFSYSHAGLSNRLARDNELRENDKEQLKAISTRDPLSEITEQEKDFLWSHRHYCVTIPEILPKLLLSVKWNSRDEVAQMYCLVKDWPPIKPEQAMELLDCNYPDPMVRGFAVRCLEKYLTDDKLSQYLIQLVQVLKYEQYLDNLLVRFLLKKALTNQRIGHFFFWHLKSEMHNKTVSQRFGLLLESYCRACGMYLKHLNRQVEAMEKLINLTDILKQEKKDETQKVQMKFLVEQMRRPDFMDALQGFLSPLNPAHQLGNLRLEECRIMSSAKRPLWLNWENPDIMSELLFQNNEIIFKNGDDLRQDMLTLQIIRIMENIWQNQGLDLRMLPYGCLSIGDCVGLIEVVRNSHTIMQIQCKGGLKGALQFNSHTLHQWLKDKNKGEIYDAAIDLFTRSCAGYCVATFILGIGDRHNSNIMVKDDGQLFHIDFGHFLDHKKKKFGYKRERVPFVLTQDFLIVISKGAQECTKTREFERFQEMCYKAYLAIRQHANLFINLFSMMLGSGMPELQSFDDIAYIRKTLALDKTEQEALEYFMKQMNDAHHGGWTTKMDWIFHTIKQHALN
T1 sequence (P27986 whole entry partner): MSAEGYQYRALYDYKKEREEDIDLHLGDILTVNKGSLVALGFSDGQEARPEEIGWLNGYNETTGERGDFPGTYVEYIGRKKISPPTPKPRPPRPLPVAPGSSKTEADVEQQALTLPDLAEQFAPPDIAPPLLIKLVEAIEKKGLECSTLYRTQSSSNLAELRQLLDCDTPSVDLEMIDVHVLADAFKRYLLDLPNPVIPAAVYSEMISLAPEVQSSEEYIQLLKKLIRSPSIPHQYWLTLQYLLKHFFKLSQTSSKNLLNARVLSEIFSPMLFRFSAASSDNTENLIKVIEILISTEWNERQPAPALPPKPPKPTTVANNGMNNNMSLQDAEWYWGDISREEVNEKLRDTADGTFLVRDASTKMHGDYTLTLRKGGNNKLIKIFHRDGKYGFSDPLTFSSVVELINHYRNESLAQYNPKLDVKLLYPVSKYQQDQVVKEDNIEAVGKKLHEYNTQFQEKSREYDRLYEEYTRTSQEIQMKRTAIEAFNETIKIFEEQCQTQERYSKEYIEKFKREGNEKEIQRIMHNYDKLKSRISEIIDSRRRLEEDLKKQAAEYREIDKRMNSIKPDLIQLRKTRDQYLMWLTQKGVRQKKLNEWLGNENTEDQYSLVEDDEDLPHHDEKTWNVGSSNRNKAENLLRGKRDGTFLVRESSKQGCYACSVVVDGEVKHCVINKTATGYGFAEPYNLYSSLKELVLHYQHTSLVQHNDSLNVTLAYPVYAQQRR

PI3Kβ = biological target: T2, PI3Kβ (Homo sapiens, UniProt P42338); assay: PI3K subtype enzyme inhibition; format: biochemical
T2 construct: purchased Life Technologies (assay run by the vendor)
T2 sequence (P42338 whole entry): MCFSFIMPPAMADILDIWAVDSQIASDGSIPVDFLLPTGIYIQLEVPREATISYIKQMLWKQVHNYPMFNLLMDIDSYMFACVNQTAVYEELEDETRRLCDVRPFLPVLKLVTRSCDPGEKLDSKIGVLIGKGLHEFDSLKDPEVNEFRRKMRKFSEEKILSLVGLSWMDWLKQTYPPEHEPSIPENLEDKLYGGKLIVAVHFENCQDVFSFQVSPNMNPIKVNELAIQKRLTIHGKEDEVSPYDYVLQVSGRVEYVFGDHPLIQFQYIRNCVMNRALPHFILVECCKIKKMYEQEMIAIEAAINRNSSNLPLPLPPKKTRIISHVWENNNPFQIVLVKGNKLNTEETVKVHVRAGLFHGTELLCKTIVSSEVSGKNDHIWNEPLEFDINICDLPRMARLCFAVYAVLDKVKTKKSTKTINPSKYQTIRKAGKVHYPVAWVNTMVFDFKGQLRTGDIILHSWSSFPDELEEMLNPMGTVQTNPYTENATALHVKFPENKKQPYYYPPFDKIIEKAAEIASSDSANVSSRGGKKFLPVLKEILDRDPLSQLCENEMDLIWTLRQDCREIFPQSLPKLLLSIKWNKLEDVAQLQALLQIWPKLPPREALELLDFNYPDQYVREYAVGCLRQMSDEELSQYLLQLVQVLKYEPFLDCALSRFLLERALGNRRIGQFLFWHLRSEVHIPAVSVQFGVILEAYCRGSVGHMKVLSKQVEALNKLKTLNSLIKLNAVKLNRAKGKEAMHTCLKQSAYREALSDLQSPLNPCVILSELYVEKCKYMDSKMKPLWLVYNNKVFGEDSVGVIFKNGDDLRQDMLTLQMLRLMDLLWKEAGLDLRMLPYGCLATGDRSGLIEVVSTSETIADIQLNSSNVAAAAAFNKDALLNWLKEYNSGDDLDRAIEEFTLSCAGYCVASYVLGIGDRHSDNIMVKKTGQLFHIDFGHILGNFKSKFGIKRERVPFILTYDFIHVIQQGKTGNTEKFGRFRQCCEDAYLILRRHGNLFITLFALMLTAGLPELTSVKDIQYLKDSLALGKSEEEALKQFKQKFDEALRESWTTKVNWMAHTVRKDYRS
T2 sequence (P27986 whole entry partner): as the sequence (P27986 whole entry partner) above

PI3Kγ [1] = biological target: T3, PI3Kγ (Homo sapiens, UniProt P48736); assay: PI3K subtype enzyme inhibition; format: biochemical
T3 construct: purchased Life Technologies (assay run by the vendor)
T3 sequence (P48736 whole entry): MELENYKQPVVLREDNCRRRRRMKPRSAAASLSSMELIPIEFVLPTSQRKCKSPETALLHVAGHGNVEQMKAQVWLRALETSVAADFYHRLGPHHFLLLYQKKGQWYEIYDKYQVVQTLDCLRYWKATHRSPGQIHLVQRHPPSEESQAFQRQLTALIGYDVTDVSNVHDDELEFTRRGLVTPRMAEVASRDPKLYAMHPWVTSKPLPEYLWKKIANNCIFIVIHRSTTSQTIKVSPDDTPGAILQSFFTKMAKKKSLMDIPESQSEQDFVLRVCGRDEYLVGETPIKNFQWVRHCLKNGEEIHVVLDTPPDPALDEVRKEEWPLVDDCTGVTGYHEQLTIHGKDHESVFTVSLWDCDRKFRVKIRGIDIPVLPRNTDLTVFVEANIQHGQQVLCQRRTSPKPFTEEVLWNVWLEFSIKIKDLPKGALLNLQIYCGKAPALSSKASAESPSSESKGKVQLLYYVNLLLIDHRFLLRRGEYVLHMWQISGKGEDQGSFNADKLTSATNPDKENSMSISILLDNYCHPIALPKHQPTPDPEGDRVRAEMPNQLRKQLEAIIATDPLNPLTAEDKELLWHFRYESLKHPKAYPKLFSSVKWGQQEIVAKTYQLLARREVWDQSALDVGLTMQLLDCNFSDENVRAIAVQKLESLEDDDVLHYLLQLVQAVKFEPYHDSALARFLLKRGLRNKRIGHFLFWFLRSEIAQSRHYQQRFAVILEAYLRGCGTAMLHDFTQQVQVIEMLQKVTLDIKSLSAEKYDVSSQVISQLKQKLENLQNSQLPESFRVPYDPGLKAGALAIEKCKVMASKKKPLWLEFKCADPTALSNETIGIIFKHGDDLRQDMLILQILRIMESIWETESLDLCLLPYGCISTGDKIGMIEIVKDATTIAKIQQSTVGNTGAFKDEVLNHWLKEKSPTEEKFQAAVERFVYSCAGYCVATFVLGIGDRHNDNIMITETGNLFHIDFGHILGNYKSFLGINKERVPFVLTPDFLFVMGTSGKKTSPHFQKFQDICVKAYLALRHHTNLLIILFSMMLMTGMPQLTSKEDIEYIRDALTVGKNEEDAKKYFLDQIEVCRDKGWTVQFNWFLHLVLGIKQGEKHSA

PI3Kδ = biological target: T4, PI3Kδ (Homo sapiens, UniProt O00329); assay: PI3K subtype enzyme inhibition; format: biochemical
T4 construct: purchased Life Technologies (assay run by the vendor)
T4 sequence (O00329 whole entry): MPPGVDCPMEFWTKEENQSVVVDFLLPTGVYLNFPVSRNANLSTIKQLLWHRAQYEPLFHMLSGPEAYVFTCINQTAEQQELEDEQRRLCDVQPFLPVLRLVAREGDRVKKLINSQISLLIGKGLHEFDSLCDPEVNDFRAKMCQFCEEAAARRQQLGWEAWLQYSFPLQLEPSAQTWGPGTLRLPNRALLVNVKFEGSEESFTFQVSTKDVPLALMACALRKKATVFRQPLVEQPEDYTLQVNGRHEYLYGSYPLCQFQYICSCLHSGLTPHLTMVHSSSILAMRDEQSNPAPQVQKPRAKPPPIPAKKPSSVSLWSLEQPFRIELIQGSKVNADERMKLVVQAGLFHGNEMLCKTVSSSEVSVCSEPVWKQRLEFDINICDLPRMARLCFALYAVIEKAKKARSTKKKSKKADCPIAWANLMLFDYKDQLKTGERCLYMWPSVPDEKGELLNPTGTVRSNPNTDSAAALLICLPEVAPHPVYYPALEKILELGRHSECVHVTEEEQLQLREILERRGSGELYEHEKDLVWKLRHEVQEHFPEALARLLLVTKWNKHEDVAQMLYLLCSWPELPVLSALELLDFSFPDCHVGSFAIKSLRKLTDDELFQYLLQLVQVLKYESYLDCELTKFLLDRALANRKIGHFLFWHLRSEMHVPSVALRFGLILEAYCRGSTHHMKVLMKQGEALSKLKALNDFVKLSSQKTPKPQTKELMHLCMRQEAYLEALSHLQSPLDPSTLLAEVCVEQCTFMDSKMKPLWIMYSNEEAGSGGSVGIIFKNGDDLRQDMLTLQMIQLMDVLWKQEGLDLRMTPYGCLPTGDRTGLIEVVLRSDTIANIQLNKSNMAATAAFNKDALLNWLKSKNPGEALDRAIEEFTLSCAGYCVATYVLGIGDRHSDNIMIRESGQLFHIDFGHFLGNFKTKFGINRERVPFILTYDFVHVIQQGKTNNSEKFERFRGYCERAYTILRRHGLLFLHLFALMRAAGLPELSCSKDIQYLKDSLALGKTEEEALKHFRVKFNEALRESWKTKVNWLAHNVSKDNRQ
T4 sequence (P27986 whole entry partner): as the sequence (P27986 whole entry partner) above

[2] = system: A375 (melanoma), D54 (glioma), CT26 colorectal cancer, A2058 (melanoma) cell lines; assay: Concurrent inhibition in tumor cell lines (multifunctional inhibitors); format: cell-based
Text: The synthesis of another series of single entity, multifunctional inhibitors achieved by covalent linking of structural analogs of a PI3K inhibitor mTOR inhibitor, and an MEK inhibitor is also disclosed.

MEK1 and PI3K activities [3] = assay: In vivo MEK1 and PI3K inhibition in intracerebral D54 glioma bearing mice (Western blot); conditions: intracerebral D54, 400 mg/kg oral gavage, 2 hours
Experimental: Mice bearing i.c. D54 tumors were treated with either vehicle or 400 mg/kg of ST-162 or ST-168 by oral gavage at 2 hours prior to sacrifice.

MEK1 and PI3K activities [4] = assay: In vivo MEK1 and PI3K inhibition in subcutaneous melanoma tumors A357 and A2058 (Western blot); set-up: species or system mice; conditions: s.q. melanoma A357 and A2058, 400 mg/kg oral gavage, 2 hours
Experimental: Mice bearing s.q. melanoma tumors were treated with either vehicle or 400 mg/kg of ST-162 or ST-168 by oral gavage at 2 hours prior to sacrifice.

MEK1 and PI3K activities [5] = assay: In vivo MEK1 and PI3K inhibition in subcutaneous colon tumor CT26 (Western blot); set-up: species or system mice; conditions: subcutaneous CT26, 400 mg/kg oral gavage, 2 hours
Experimental: Mice bearing subcutaneous colon tumors were treated with either vehicle or 400 mg/kg of ST-162 or ST-168 by oral gavage at 2 hours prior to sacrifice. The known MEK inhibitor 901 and PI3K inhibitors were also evaluated in this study.

mTOR/MEK1/PI3K = assay: In vivo inhibition in A375 flank tumor (Western blot); set-up: species or system mouse; conditions: oral, 2 hour postadministration
Text: (§1) The synthesis of another series of single entity, multifunctional inhibitors achieved by covalent linking of structural analogs of a PI3K inhibitor mTOR inhibitor, and an MEK inhibitor is also disclosed. […] […].

A375 melanoma tumor = assay: In vivo efficacy in A375 melanoma tumor bearing mice
Text: as §1

MEK1 = biological target: T5, MEK1 (Homo sapiens, UniProt Q02750); assay: In vitro MEK1 inhibition assay (Kinase-Glo luminescent kinase assay); format: biochemical; conditions: average of three experiments each conducted in duplicate
T5 construct: purchased Sigma-Aldrich

PI3K = PI3K (Homo sapiens, UniProt P42336); assay: In vitro PI3K inhibition assay (Adapta TR-FRET); format: biochemical; conditions: average of three experiments each conducted in duplicate
[6] = system: pErk1/2 in A549 and D54 cells; assay: Cellular MEK1 inhibition, Western blot of pErk1/2 in cultured tumor cells; format: cell-based, human; conditions: A549 and D54 cell lines, 1 hour
[7] = system: pAkt in A549 and D54 cells; assay: Cellular PI3K inhibition, Western blot of pAkt in cultured tumor cells; format: cell-based, human; conditions: 1 hour
Experimental: The in vitro MEK1 and PI3K inhibitory activity of these series of compounds was also assessed in cultured tumor cells (D54, A549). Cellular efficacy of MEK1 and PI3K inhibition by inhibitor compounds was measured by changes in phosphorylation of pErk1/2 and pAkt, respectively. […] Cells were incubated in the presence of indicated compounds for 1 hour and lysates probed with specific antibodies against pAKT and pERK 1/2 and compared with vehicle control (DMSO). A549 (FIG. 2A) and D54 (FIG. 2B) cells were treated with inhibitors at the indicated concentrations for 1 hour and subjected to Western blot analysis.
Western Blot Analysis. Cells were seeded in six-well dishes 24 hours prior to treatment and incubated with the respective inhibitor compound solutions for 1 h. Cells were washed with phosphatebuffered saline (PBS) and lysed with NP-40 lysis buffer (1% NP40, 150 mM NaCl, and 25 mM Tris, pH 8.0) supplemented with protease inhibitors (Complete protease inhibitor cocktail, Roche, Basel, Switzerland) and phosphatase inhibitors (PhosSTOP, Roche, Basel, Switzerland). Concentration of protein was determined using Lowry assays (Bio-Rad, Hercules, Calif.), and equal amounts of whole cell protein lysate were loaded in each lane and resolved using 4-12% gradient Bis-Tris gel (Invitrogen, CA). Proteins were transferred to 0.2 μm nitrocellulose membranes (Invitrogen, CA). Membranes were incubated overnight at 4° C. with primary antibodies after blocking, followed by incubation with appropriate horseradish peroxidase (HRP) conjugated secondary antibody at room temperature for 1 hour. ECL-Plus was used to detect the activity of peroxidase according to the manufacturer's protocol (Amersham Pharmacia, Uppsala, Sweden). Antibodies raised against phospho-p44/42 MAPK (Erk1/2) (Thr202/Tyr204), pAKT(5473), phospho-p70 S6K* and total ERK, AKT antibodies were purchased from Cell Signaling Technology (Beverly, Mass., USA), and anti-β actin (conjugated with HRP) was purchased from Abcam (Cambridge, Mass., USA). Secondary HRP antibodies were purchased from Jackson ImmunoResearch (St. Louis, Mo., USA).

A549 lung tumor cells = assay: Cell viability, AlamarBlue assay; format: cell-based, human; conditions: dose dependence
D54 glioma cells = assay: Cell viability, AlamarBlue assay; format: cell-based, human; conditions: dose dependence
ERK1/2 phosphorylation = assay: In vivo MEK1 inhibition in flank D54 and A549 tumor bearing mice (Western blot)
Akt phosphorylation = assay: In vivo PI3K inhibition in flank D54 and A549 tumor bearing mice (Western blot)
[8] = system: intracerebral D54 glioma tumors; assay: Survival of mice bearing intracerebral D54 tumors; format: in vivo; conditions: intracerebral D54, 400 mg/kg oral gavage, vs vehicle control; listed as ST-162
Experimental: (§2) In preliminary studies, several mouse models were tested for therapeutic efficacy using oral administration of ST-162. Athymic nude Foxn1 nu mice were used to evaluate oncogenic target modulation activity in vivo. Mice bearing intracerebral D54 tumors, subcutaneous colon tumors (CT26) and subcutaneous melanoma (A375 and A2058) tumors were treated with either vehicle control or 400 mg/kg of compound ST-162 by oral gavage for 14-30+ days.

[9] = system: melanoma tumors A2058 and A357; assay: Tumor growth of subcutaneous melanoma tumors; format: in vivo, mice; conditions: 400 mg/kg oral gavage, 14 days, vs vehicle, listed as ST-162, 400 mg/kg
Experimental: as §2
In FIG. 9, compound ST-162 was administered for 14 days beginning when subcutaneous melanoma tumors A2058 and A357 were measurable by caliper and MRI and tumor volumes were measured over time and compared to vehicle controls.

colon tumors CT-26 = assay: Tumor growth of subcutaneous colon tumors; format: in vivo, mice; conditions: for tumor growth: subcutaneous CT26, 400 mg/kg oral gavage, 14 days, vs vehicle
Experimental: as §2
In FIG. 10, compound ST-162 was administered for 14 days beginning when subcutaneous colon tumors CT-26 were measurable by caliper and MRI and tumor volumes were measured over time and compared to vehicle controls.
In FIG. 11, ST-162 was administered for 14 days beginning when subcutaneous colon tumors CT-26 were measurable by caliper and MRI and tumor volumes were measured over time and compared to vehicle controls. At day 14, two tumors were removed and compared for size and weight.

PI3Kγ [10] = biological target: T3, PI3Kγ; conditions: second value in parentheses, unexplained; cited from earlier work
[11] = mean ± SEM, read-out: PI3K Subtype Inhibition Activity PI3Kα
[12] = mean ± SEM, read-out: PI3K Subtype Inhibition Activity PI3Kβ
[13] = read-out: PI3K Subtype Enzyme Inhibition Data IC50 PI3Kβ
[14] = mean ± SEM, read-out: PI3K Subtype Inhibition Activity PI3Kγ
[15] = read-out: PI3K Subtype Enzyme Inhibition Data IC50 PI3Kγ
[16] = D54 and A549 tumors, compound 14: 375 mg/kg oral gavage, 2 h, 375 mg/kg
[17] = oral administration, 2 h postadministration, Western blot

- IC50 (PI3Kα; [11]): 69.2 ± 2.2 nM
- IC50 (PI3Kα; read-out: PI3K Subtype Enzyme Inhibition Data IC50 PI3Kα): 69.2 ± 2.2 nM
- IC50 (PI3Kβ; [12]): 1480 ± 377 nM
- IC50 (PI3Kβ; [13]): 1480 ± 377 nM
- IC50 (PI3Kγ [1]; [14]): 2290 ± 241 nM
- IC50 (PI3Kγ [1]; [15]): 2290 ± 241 nM
- IC50 (PI3Kδ; mean ± SEM, read-out: PI3K Subtype Inhibition Activity PI3Kδ): 41.7 ± 2.1 nM
- IC50 (PI3Kδ; read-out: PI3K Subtype Enzyme Inhibition Data IC50 PI3Kδ): 41.7 ± 2.1 nM
Structure (SMILES): O=C(NOCCOCCOCCOCCC(=O)N1CCN(c2nc(N3CCOCC3)nc(-n3c(C(F)F)nc4ccccc43)n2)CC1)c1ccc(F)c(F)c1Nc1ccc(I)cc1F [ST-168]
- Concurrent inhibition in tumor cell lines [2]: Concurrent inhibition was demonstrated
- MEK1 and PI3K activities in tumor relative to vehicle control (MEK1 and PI3K activities [3]): successfully modulated both MEK1 and PI3K activities
- MEK1 and PI3K activities in tumor relative to vehicle control (MEK1 and PI3K activities [4]): successfully modulated both MEK1 and PI3K activities
- MEK1 and PI3K activities in tumor relative to vehicle control (MEK1 and PI3K activities [5]): successfully modulated MEK1 and PI3K activities
- inhibition of mTOR/MEK1/PI3K in tumor tissue (mTOR/MEK1/PI3K): combined inhibition of mTOR/MEK1/PI3K was achieved
- reduction in tumor size over vehicle control (A375 melanoma tumor; A375, 400 mg/kg daily oral, 35 days post-treatment initiation): > 6 fold
- lifespan (A375 melanoma tumor; A375 tumor bearing mice, 400 mg/kg daily oral): significantly increased lifespan
- side effects (such as loss in body weight) (A375 melanoma tumor; long term dosage, 40 daily oral doses, 400 mg/kg): no detectable side effects

Structure (SMILES): O=C(NOCCOCCOCCOCCN1CCN(c2nc(N3CCOCC3)nc(-n3c(C(F)F)nc4ccccc43)n2)CC1)c1ccc(F)c(F)c1Nc1ccc(I)cc1F [Compound 14]
- IC50 (MEK1): 0.15 nM
- IC50 (PI3K): 191 to 341 nM
- IC50 (PI3Kα; [11]): 467 ± 9 nM
- IC50 (PI3Kβ; [12]): 4070 ± 290 nM
- IC50 (PI3Kβ; [13]): 4070 ± 290 nM
- IC50 (PI3Kγ [1]; [14]): 5800 ± 511 nM
- IC50 (PI3Kγ [1]; [15]): 5800 ± 511 nM
- MEK inhibition in cells [6]: inhibition was demonstrated; also recorded: most pronounced
- PI3K inhibition in cells ([7]; A549 and D54 cell lines, Western blot): inhibition was demonstrated; also recorded: most pronounced
- PI3K activity indicated by level of pAKT ([7]; cultured A549 cells, Western blot vs DMSO): high potency in inhibiting PI3K activity
- Concurrent inhibition in tumor cell lines [2]: Concurrent inhibition was demonstrated
- cell viability (A549 lung tumor cells): as effective as the combination of ZSTK474 and PD0325901
- cell viability (D54 glioma cells): as effective as the combination of ZSTK474 and PD0325901
- phosphorylation of ERK1/2 (MEK1 activity) in excised tumor tissue (ERK1/2 phosphorylation; [16]): inhibited phosphorylation; also recorded: significant inhibition
- inhibition of tumor ERK1/2 phosphorylation (ERK1/2 phosphorylation; [17]): 95%
- phosphorylation of Akt (PI3K activity) in excised tumor tissue (Akt phosphorylation; [16]): inhibited phosphorylation; also recorded: significant inhibition
- inhibition of tumor Akt phosphorylation (Akt phosphorylation; [17]): 67%
- MEK1 and PI3K activities in tumor relative to vehicle control (MEK1 and PI3K activities [3]): successfully modulated both MEK1 and PI3K activities
- MEK1 and PI3K activities in tumor relative to vehicle control (MEK1 and PI3K activities [4]): successfully modulated both MEK1 and PI3K activities
- MEK1 and PI3K activities in tumor relative to vehicle control (MEK1 and PI3K activities [5]): successfully modulated MEK1 and PI3K activities
- overall survival [8]: improved animal survival; also recorded: significant improvement (P=0.0054)
- tumor growth [9]: significant tumor growth delays; also recorded: significant reduction of tumor growth
- size of excised tumors (colon tumors CT-26; CT-26, day 14, vs vehicle control tumors): smaller in volume
- tumor growth (colon tumors CT-26; listed as MV4-162): significant reduction of tumor growth
- tumor growth (colon tumors CT-26; listed as ST-162): significant tumor growth delays

- IC50 (PI3Kγ [1]; ST-182 and intermediates, read-out: PI3Kγ IC50): 0.83 ± 0.1 nM
Structure (SMILES): COc1ncc(-c2ccc3nccc(-c4ccnnc4)c3c2)cc1NS(=O)(=O)c1ccc(F)cc1F [GSK 458, reference compound]
- IC50 (PI3Kγ [10]): 0.06 nM
